Reference: PMC9352624, “Going deeper into the toxicokinetics of synthetic cannabinoids: in vitro contribution of human carboxylesterases” (Archives of Toxicology, 2022)

Experiments:
[1] = Initial activity screening of AB-PINACA (Thomsen et al. conditions) with pHLM; assay type: in vitro ADME, human; settings: 10 µM, 20 min, 37 °C, 1 µg/µL protein
Protocol: (§1) The initial activity screening with AB-PINACA was conducted as described by Thomsen et al. with minor modifications (Thomsen et al. [2015]). […] All incubations were done in duplicate. […] Afterwards, 110 µL of 0.1% formic acid in water was added. […] Furthermore, 1 µL was analyzed by liquid chromatography–high-resolution tandem mass spectrometry (LC–HRMS/MS, apparatus details given in the Electronic Supplementary Material).
(§2) Data analysis was based on peak areas.

[2] = Initial activity screening of AB-PINACA (Thomsen et al. conditions) with pHLS9; assay type: in vitro ADME, human; settings: 10 µM, 20 min, 37 °C, 1 µg/µL protein
Protocol: as §1, §2

[3] = molecular target: T1, hCES1b (Homo sapiens, UniProt P23141); assay: Initial activity screening of AB-PINACA (Thomsen et al. conditions) with hCES1b; assay type: in vitro ADME; design: purchased Corning (Amsterdam, The Netherlands); host or cells: baculovirus transfected insect cells; settings: 10 µM, 20 min, 37 °C, 0.1 µg/µL protein
T1 sequence (P23141 18-567): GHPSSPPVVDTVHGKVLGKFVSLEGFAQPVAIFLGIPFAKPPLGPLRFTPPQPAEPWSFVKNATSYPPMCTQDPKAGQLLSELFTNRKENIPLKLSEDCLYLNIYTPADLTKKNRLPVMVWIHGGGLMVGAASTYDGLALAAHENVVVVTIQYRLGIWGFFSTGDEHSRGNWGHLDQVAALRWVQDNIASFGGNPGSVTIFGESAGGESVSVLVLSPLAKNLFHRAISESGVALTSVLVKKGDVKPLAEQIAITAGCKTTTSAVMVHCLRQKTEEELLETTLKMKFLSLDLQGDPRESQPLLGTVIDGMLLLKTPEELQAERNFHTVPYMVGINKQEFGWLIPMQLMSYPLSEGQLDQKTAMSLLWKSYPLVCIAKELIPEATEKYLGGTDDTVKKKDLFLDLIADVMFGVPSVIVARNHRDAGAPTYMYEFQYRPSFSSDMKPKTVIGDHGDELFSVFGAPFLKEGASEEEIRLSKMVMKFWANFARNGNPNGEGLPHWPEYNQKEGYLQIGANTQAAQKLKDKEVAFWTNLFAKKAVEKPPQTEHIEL
Protocol: as §1, §2

[4] = molecular target: T2, hCES1c (Homo sapiens, UniProt P23141); assay: Initial activity screening of AB-PINACA (Thomsen et al. conditions) with hCES1c; assay type: in vitro ADME; design: purchased Corning (Amsterdam, The Netherlands); host or cells: baculovirus transfected insect cells; settings: 10 µM, 20 min, 37 °C, 0.1 µg/µL protein
T2 sequence (P23141 18-566 isoform P23141-3 limits assumed): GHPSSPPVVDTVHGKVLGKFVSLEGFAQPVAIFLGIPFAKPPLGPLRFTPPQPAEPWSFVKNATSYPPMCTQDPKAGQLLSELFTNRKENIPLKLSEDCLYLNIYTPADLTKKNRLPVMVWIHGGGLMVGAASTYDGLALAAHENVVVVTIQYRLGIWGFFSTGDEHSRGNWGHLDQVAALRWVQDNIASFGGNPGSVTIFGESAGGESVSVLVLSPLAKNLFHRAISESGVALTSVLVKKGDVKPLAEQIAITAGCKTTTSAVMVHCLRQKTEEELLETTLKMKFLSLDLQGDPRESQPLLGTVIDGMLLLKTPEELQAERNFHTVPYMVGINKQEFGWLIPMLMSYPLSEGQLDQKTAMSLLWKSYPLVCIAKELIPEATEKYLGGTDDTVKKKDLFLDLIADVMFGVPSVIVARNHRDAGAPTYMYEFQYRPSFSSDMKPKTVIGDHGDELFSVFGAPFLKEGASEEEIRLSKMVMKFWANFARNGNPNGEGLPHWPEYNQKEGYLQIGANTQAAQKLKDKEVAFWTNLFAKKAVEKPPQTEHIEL
Protocol: as §1, §2

[5] = molecular target: T3, hCES2 (Homo sapiens, UniProt O00748); assay: Initial activity screening of AB-PINACA (Thomsen et al. conditions) with hCES2; assay type: in vitro ADME; design: purchased Corning (Amsterdam, The Netherlands); host or cells: baculovirus transfected insect cells; settings: 10 µM, 20 min, 37 °C, 0.1 µg/µL protein
T3 sequence (O00748 27-559): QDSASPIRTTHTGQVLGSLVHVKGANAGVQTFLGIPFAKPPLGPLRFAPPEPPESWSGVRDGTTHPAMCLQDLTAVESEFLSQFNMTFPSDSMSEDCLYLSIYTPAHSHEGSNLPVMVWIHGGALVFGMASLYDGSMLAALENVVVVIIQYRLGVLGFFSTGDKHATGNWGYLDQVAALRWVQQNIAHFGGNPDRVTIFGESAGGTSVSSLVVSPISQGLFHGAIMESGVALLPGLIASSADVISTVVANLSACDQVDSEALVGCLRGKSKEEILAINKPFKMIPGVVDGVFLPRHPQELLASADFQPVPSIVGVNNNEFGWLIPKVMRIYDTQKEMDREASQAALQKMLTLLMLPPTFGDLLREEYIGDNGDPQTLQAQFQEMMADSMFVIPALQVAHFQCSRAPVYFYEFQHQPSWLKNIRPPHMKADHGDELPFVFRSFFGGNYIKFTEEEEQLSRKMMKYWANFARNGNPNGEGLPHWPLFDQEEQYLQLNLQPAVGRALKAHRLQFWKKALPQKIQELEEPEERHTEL
Protocol: as §1, §2

[6] = molecular target: T3, hCES2; assay: Initial activity screening with recombinant hCES2; settings: 100 µM substrate, 30 min, 37 °C, 0.2 µg/µL protein, LC–ITMS
[7] = molecular target: T1, hCES1b; assay: Initial activity screening with recombinant hCES1b; settings: 100 µM substrate, 30 min, 37 °C, 0.2 µg/µL protein, LC–ITMS
[8] = molecular target: T2, hCES1c; assay: Initial activity screening with recombinant hCES1c; settings: 100 µM substrate, 30 min, 37 °C, 0.2 µg/µL protein, LC–ITMS
[9] = molecular target: T1, hCES1b; assay: Enzyme kinetic studies of ester hydrolysis with hCES1b
[10] = molecular target: T2, hCES1c; assay: Enzyme kinetic studies of ester hydrolysis with hCES1c
[11] = Initial activity screening with pooled human liver microsomes; settings: 100 µM substrate, 30 min, 37 °C, 2 µg/µL protein, LC–ITMS, mean n = 2
[12] = Initial activity screening with pooled human liver S9 fraction; settings: 100 µM substrate, 30 min, 37 °C, 2 µg/µL protein, LC–ITMS, mean n = 2
[13] = substrate: C=CCCCn1cc(C(=O)N[C@H](C(=O)OC)C(C)C)c2ccccc21; assay: not read; settings: other: ± S.D.; Michaelis–Menten fit, conditions of Table 1; pH 7.4
[14] = substrate: COC(=O)C(Cc1ccccc1)NC(=O)c1cn(CCCCCF)c2ccccc12; assay: not read; settings: other: ± S.D.; Michaelis–Menten fit, conditions of Table 1; pH 7.4
[15] = ± S.D., peak area ratio metabolite/internal standard

Which “Relative amount of carboxylic acid metabolite formed (head group carboxamide hydrolysis), pHLM” value ([1]; LC–HRMS/MS) does the source give for `CCCCCn1nc(C(=O)N[C@H](C(N)=O)C(C)C)c2ccccc21` [AB-PINACA, (S)-N-(1-amino-3-methyl-1-oxobutan-2-yl)-1-pentyl-1H-indazole-3-carboxamide] here?
The value was 4.3%.

What about the “Metabolite detection by LC–ITMS, pHLM” value ([1]; LC–ITMS) of the same molecule?
Its value is “no AB-PINACA metabolites were detected”.

And the “Relative amount of carboxylic acid metabolite formed (head group carboxamide hydrolysis), pHLS9” value ([2]; LC–HRMS/MS)?
Its value is 2.2%.

What about the “Metabolite detection by LC–ITMS, pHLS9” value ([2]; LC–ITMS) of the same molecule?
Its value is “no AB-PINACA metabolites were detected”.

And the “Relative amount of carboxylic acid metabolite formed (head group carboxamide hydrolysis), hCES1b” value ([3]; LC–HRMS/MS)?
Its value is 1.4%.

And the “Metabolite detection by LC–ITMS, hCES1b” value ([3]; LC–ITMS)?
The value was “no AB-PINACA metabolites were detected”.

And the “Metabolite detection by LC–ITMS, hCES1c” value [4]?
Its value is “no AB-PINACA metabolites were detected”.

What about the “Metabolite detection by LC–ITMS, hCES2” value [5] of the same molecule?
The value was “no AB-PINACA metabolites were detected”.

With “N-[(2S)-1-amino-3,3-dimethyl-1-oxobutan-2-yl]-1-[(4-fluorophenyl)methyl]-1H-indazole-3-carboxamide [MMB-FUBINACA]” as the molecule, how does the “Hydrolysis of carboxamide linker, hCES2” value [6] read?
Its value is “−”.

What about the “Hydrolysis of carboxamide/ester in head group, hCES2” value [6] of the same molecule?
The value was “+”.

And the “Relative amount of hydrolysis metabolite formed, hCES2” value ([6]; mean n = 2)?
Its value is 3.2%.

What about the “Hydrolysis of carboxamide linker, hCES1b” value [7] of the same molecule?
The value was “−”.

And the “Hydrolysis of carboxamide/ester in head group, hCES1b” value [7]?
Its value is “+”.

What about the “Relative amount of hydrolysis metabolite formed, hCES1b” value ([7]; mean n = 2) of the same molecule?
Its value is 78%.

What about the “Hydrolysis of carboxamide linker, hCES1c” value [8] of the same molecule?
The value was “−”.

And the “Hydrolysis of carboxamide/ester in head group, hCES1c” value [8]?
The value was “+”.

What about the “Relative amount of hydrolysis metabolite formed, hCES1c” value ([8]; mean n = 2) of the same molecule?
Its value is 87%.

And the “Clint (relative in vitro intrinsic clearance), hCES1b” value ([9]; Clint = Vmax/Km)?
The value was 1.7 AU/min/mg/µM.

And the Km ([9]; read-out: Km, ester hydrolysis by hCES1b, ± S.D., Michaelis–Menten fit, conditions of Table 1)?
The Km was 40.8 ± 15 µM.

What about the “Vmax (relative), ester hydrolysis by hCES1b” value [9, 15] of the same molecule?
The value was 70.3 ± 7.6 AU/min/mg.

What about the “Clint (relative in vitro intrinsic clearance), hCES1c” value ([10]; Clint = Vmax/Km) of the same molecule?
The value was 1.2 AU/min/mg/µM.

And the Km ([10]; read-out: Km, ester hydrolysis by hCES1c, ± S.D., Michaelis–Menten fit, conditions of Table 1)?
The Km was 25.7 ± 3.5 µM.

And the “Vmax (relative), ester hydrolysis by hCES1c” value [10, 15]?
Its value is 30.7 ± 0.96 AU/min/mg.

What about the “Relative amount of hydrolysis metabolite formed, pHLM” value [11] of the same molecule?
The value was “complete transformation”.

And the “Relative amount of hydrolysis metabolite formed, pHLS9” value [12]?
The value was “complete transformation”.

B1: hCES1c (Homo sapiens) (protein)
chain: GHPSSPPVVDTVHGKVLGKFVSLEGFAQPVAIFLGIPFAKPPLGPLRFTPPQPAEPWSFVKNATSYPPMCTQDPKAGQLLSELFTNRKENIPLKLSEDCLYLNIYTPADLTKKNRLPVMVWIHGGGLMVGAASTYDGLALAAHENVVVVTIQYRLGIWGFFSTGDEHSRGNWGHLDQVAALRWVQDNIASFGGNPGSVTIFGESAGGESVSVLVLSPLAKNLFHRAISESGVALTSVLVKKGDVKPLAEQIAITAGCKTTTSAVMVHCLRQKTEEELLETTLKMKFLSLDLQGDPRESQPLLGTVIDGMLLLKTPEELQAERNFHTVPYMVGINKQEFGWLIPMLMSYPLSEGQLDQKTAMSLLWKSYPLVCIAKELIPEATEKYLGGTDDTVKKKDLFLDLIADVMFGVPSVIVARNHRDAGAPTYMYEFQYRPSFSSDMKPKTVIGDHGDELFSVFGAPFLKEGASEEEIRLSKMVMKFWANFARNGNPNGEGLPHWPEYNQKEGYLQIGANTQAAQKLKDKEVAFWTNLFAKKAVEKPPQTEHIEL
For B1, which Km [13] is on record?
Its Km is 203 ± 43 µM.

And the Km [14]?
The Km was 23.2 ± 4.1 µM.

B2: hCES1b (Homo sapiens) (protein)
chain: GHPSSPPVVDTVHGKVLGKFVSLEGFAQPVAIFLGIPFAKPPLGPLRFTPPQPAEPWSFVKNATSYPPMCTQDPKAGQLLSELFTNRKENIPLKLSEDCLYLNIYTPADLTKKNRLPVMVWIHGGGLMVGAASTYDGLALAAHENVVVVTIQYRLGIWGFFSTGDEHSRGNWGHLDQVAALRWVQDNIASFGGNPGSVTIFGESAGGESVSVLVLSPLAKNLFHRAISESGVALTSVLVKKGDVKPLAEQIAITAGCKTTTSAVMVHCLRQKTEEELLETTLKMKFLSLDLQGDPRESQPLLGTVIDGMLLLKTPEELQAERNFHTVPYMVGINKQEFGWLIPMQLMSYPLSEGQLDQKTAMSLLWKSYPLVCIAKELIPEATEKYLGGTDDTVKKKDLFLDLIADVMFGVPSVIVARNHRDAGAPTYMYEFQYRPSFSSDMKPKTVIGDHGDELFSVFGAPFLKEGASEEEIRLSKMVMKFWANFARNGNPNGEGLPHWPEYNQKEGYLQIGANTQAAQKLKDKEVAFWTNLFAKKAVEKPPQTEHIEL
Which Km [14] does the source give for B2 here?
Its Km is 88.9 ± 18 µM.
